Data as given in patent publication US9266922B2, “Antigen peptide and uses thereof” (priority 2011, dated 2016).
Read-outs that look alike come from different tables or passages of the source. Residues, ends and D or L forms follow the SMILES beside them.

Legend:
HLA-A*0201 [1] = target: T1, HLA-A*0201 (Homo sapiens, UniProt P04439, D140Y/D185E/D98H/E176V/E277Q/G131W/G231S/I119V/I121R/I166T/I218V/L300P/L318F/N151K/N90K/P208A/P217A/Q86G/Q94H/R138H/R169H/T345S); assay: iTOPIA EDS MHC peptide binding assay; details: HLA-A*0201 monomer, relative to positive control peptide, 21° C. for 18 h
Text: MHC peptide binding assay using iTOPIA EDS
Microtiter 96 well plates containing HLA class I MHC monomer loaded with the human β2-microglobulin and a “placeholder” peptide were used to evaluate peptide binding, affinity, and off-rate.
The 502 nectin4 nonapeptides were first evaluated for their ability to bind to each MHC molecule in the peptide binding assay. In this assay, the placeholder peptides were stripped from the MHC class I monomer complexes coated on plastic, which leaves the MHC class I heavy chain available as a binding partner for candidate peptides in the presence of human β2-microglobulin.
Peptide binding was performed at 21° C. for 18 h. Revelation was done using an anti HLA-ABC-FITC mAb that binds to refolded MHC complex conformation. The relative fluorescent intensity was read using a fluorimeter (Molecular Devices, SpectraMax Gemini, Sunnyvale, Calif., USA).
Peptides with a binding>30% of the positive control peptide were selected as “binder” and subsequently analyzed for affinity (ED50) and off-rate (T1/2).

HLA-A*0201 [2] = target: T1, HLA-A*0201; assay: biochemical; type: binding
HLA-A*0201 [3] = target: T1, HLA-A*0201; assay: iScore calculation (iTOPIA system software); details: multiparametric score of binding, off-rate and affinity
[4] = target: T2, HLA A*0201 on CEM.T2 cell line (Homo sapiens, UniProt P04439, D140Y/D185E/D98H/E176V/E277Q/G131W/G231S/I119V/I121R/I166T/I218V/L300P/L318F/N151K/N90K/P208A/P217A/Q86G/Q94H/R138H/R169H/T345S); assay: Cellular binding assay, HLA stabilization on CEM.T2 cells; type: cell-based; details: for CEM.T2 % Binding: 100 μM peptide, 37° C. for 4 h, FACS anti HLA-A2, relative to HBV positive control peptide
T2 construct: This cell line expresses HLA A*0201 but is deficient for TAP transporter; endogenous in cells; host or cells: CEM.T2 (T2) cell line
Procedure: The CEM.T2 cell line (T2) is defective in the processing of proteins for presentation by MHC class 1 molecules. This cell line expresses HLA A*0201 but is deficient for TAP transporter. T2 is classically used to assess the Peptide/HLA-A*0201 Complex Stability[H. W. Nijman et al., 1993]
For HLA-A2*0201 stabilization, T2 cells (2×10^5/well) were incubated in serum-free RPMI (Gibco®-France) with 100 μM of selected peptide, at 37° C. for 4 h. Cells were washed two times with PBS supplemented with 1% BSA and stained with fluorescein isothiocyanate-conjugated anti HLA-A2 (Clone BB7.2) (BD Bioscience Pharmingen-France-) at 4° C. for 45 min. After 3 washes, cells were fixed in PBS supplemented with 2% paraformaldehyde and analyzed by FACS (FACScan, BD Bioscience). The percentage of peptide binding was calculated as follows: % Binding={(MFI peptide sample−MFI Neg control)/(MFI Pos control−MFI Neg control)}×100
Negative control was done without peptide.

[5] = test system: MDA-MB-231 breast carcinoma cell line; assay: CTL cytotoxicity, 4 h 51Cr-release assay; type: cell-based, human; details: FIG. 4D
HLA-A*0201 [6] = target: T1, HLA-A*0201; assay: iTOPIA EDS and […] analyses (FIG. 5B); type: binding; details: iTOPIA EDS and SYFPEITHI
Procedure: (§1) A library of 502 nonapeptides which span the entire 510 amino acid sequence of human nectin4, was synthesized (JPT Peptide Technologies GmbH, Berlin Germany). A series of 9 peptides described in the literature was selected and used as reference (Table 1). Peptides (purity >80%) were dissolved in DMSO at a concentration of 10 mM and stored at −20° C. Specific control peptides for each allele were supplied by the manufacturer of the iTOPIA Epitope Discovery System (EDS) (Beckman Coulter Inc., San Diego, Calif., USA). The 502 peptides were tested for binding to eight alleles (HLA-A*0101; HLA-A*0201; HLA-A*0301; HLA-A*1101; HLA-A*2402; […]; HLA-B*0801; HLA-B*1501) with the iTOPIA EDS.

HLA-A*2402 = HLA-A*2402 (Homo sapiens, UniProt P04439, D101N/D140Y/D185E/E176V/E190D/F33S/G103R/G107R/I119L/I121M/I306V/K335N/L105A/L180Q/L300P/N151K/N90K/Q86E/Q94H/R106L/R138H/R89G/T104I/T345S/V100E/W191G/Y123F); assay: iTOPIA EDS and […] analyses (FIG. 5B); type: binding; details: iTOPIA EDS and SYFPEITHI
Procedure: as §1

HLA-B*1501 = HLA-B*1501 (Homo sapiens, UniProt P01889, A329T/A93T/A95T/C349S/D201E/D98Y/E187L/E204Q/E69M/E70A/K202T/N87E/Q94N/R155S/R180W/S121R/S35A/S48A/V306I/V36M/Y140S/Y91S); assay: iTOPIA EDS and […] analyses (FIG. 5B); type: binding; details: iTOPIA EDS and SYFPEITHI
Procedure: as §1

[7] = target: T2, HLA A*0201 on CEM.T2 cell line; assay: Cellular dissociation assay on CEM.T2 cells; type: cell-based; details: after Brefeldin A 1 h and 3 h in serum-free RPMI at 37° C. (4 h)
Procedure: Cellular Dissociation Assay
After HLA-A2*0201 stabilization with peptides at 37° C. for 4 h, T2 cells were incubated for 1 h, in serum-free RPMI containing Brefeldin A (10 μg/ml), an inhibitor of the transport of secretory and lysosomal proteins [G. J. Strous et al., 1993]. After 3 washes, T2 cells were incubated for 3 h in serum-free RPMI at 37° C. Binding was then measured by FACS and after 4 h incubation. Percentage of Residual Binding (% RB) was calculated as follows: […]

[8] = peptide concentration giving 50% of optimal binding, 10^−4 to 10^−9 M, 21° C. for 18 h, read-out: Affinity (ED50)

## CC(C)C[C@H](NC(=O)[C@H](CO)NC(=O)[C@@H]1CCCN1C(=O)[C@H](CC(C)C)NC(=O)[C@@H]1CCCN1C(=O)[C@@H]1CCCN1C(=O)[C@@H](NC(=O)[C@H](CC(C)C)NC(=O)[C@@H](N)C(C)C)C(C)C)C(=O)O [Peptide 145] (H-VLVPPLPSL-OH; N-terminus and C-terminus assumed)
HLA-A*0201 [1]
  % Binding: 67%
HLA-A*0201 [2]; Affinity (ED50)
  EC50: 500 nM
HLA-A*0201 [2]; estimated dose to reach 50% maximal binding (ED50)
  EC50: ~100 nM
HLA-A*0201 [3]
  iScore: 0.783
[4]; flow cytometry, FIG. 3A and 3B
  HLA-A*0201 class I level on T2 cells: increase the HLA-A*0201 class I level on T2 cells
[5]; CTL isolated with HLA-A2/peptide tetramer, target not peptide loaded
  lysis by peptide-specific CTL of MDA-MB-231 cell line expressing nectin4: able to kill the MDA-MB-231 cell line expressing nectin4
[5]; nectin4 negative HLA-A*0201 target
  lysis by peptide-specific CTL of wild-type MDA-MB-231 cells: not the wild-type MDA-MB-231 cells
HLA-A*0201 [6]
  binder class for HLA-A*0201: strong binder
HLA-A*2402
  binder class for HLA-A*2402: strong binder
HLA-B*1501
  binder class for HLA-B*1501: strong binder

## CC(C)C[C@H](N)C(=O)N[C@H](C(=O)N[C@@H](CO)C(=O)N[C@@H](C)C(=O)N[C@@H](CO)C(=O)N[C@H](C(=O)N[C@H](C(=O)N[C@H](C(=O)N[C@H](C(=O)O)C(C)C)C(C)C)C(C)C)C(C)C)C(C)C [Peptide 345] (H-LVSASVVVV-OH; N-terminus and C-terminus assumed)
HLA-A*0201 [1]
  % Binding: 51%
HLA-A*0201 [2]; [8]
  EC50: 60 nM
HLA-A*0201 [3]
  iScore: 0.626
[4]
  CEM.T2 % Binding: 11%
[7]
  CEM.T2 % Residual Binding: 0%

## CC(C)[C@H](NC(=O)CNC(=O)[C@@H](NC(=O)[C@@H](NC(=O)[C@@H](NC(=O)[C@@H](NC(=O)[C@H](CO)NC(=O)[C@H](C)NC(=O)[C@@H](N)CO)C(C)C)C(C)C)C(C)C)C(C)C)C(=O)O [Peptide 347] (H-SASVVVVGV-OH; N-terminus and C-terminus assumed)
HLA-A*0201 [1]
  % Binding: 64%
HLA-A*0201 [2]; [8]
  EC50: 200 nM
HLA-A*0201 [3]
  iScore: 0.708
[4]
  CEM.T2 % Binding: 40%
[7]
  CEM.T2 % Residual Binding: 0%

## CC[C@H](C)[C@H](NC(=O)[C@@H](NC(=O)CN)C(C)C)C(=O)N[C@@H](C)C(=O)N[C@@H](C)C(=O)N[C@@H](CC(C)C)C(=O)N[C@@H](CC(C)C)C(=O)N[C@@H](Cc1ccccc1)C(=O)N[C@@H](CS)C(=O)O [Peptide 354] (H-GVIAALLFC-OH; N-terminus and C-terminus assumed)
HLA-A*0201 [1]
  % Binding: 61%
HLA-A*0201 [2]; [8]
  EC50: 90 nM
HLA-A*0201 [3]
  iScore: 0.845
[4]
  CEM.T2 % Binding: 10%
[7]
  CEM.T2 % Residual Binding: 0%

## CC[C@H](C)[C@H](NC(=O)[C@@H](N)C(C)C)C(=O)N[C@@H](C)C(=O)N[C@@H](C)C(=O)N[C@@H](CC(C)C)C(=O)N[C@@H](CC(C)C)C(=O)N[C@@H](Cc1ccccc1)C(=O)N[C@@H](CS)C(=O)N[C@@H](CC(C)C)C(=O)O [Peptide 355] (H-VIAALLFCL-OH; N-terminus and C-terminus assumed)
HLA-A*0201 [1]
  % Binding: 59%
HLA-A*0201 [2]; [8]
  EC50: 30 nM
HLA-A*0201 [3]
  iScore: 0.888
[4]
  CEM.T2 % Binding: 18%
[7]
  CEM.T2 % Residual Binding: 24%

## CC(C)C[C@H](NC(=O)[C@H](C)NC(=O)[C@H](C)N)C(=O)N[C@@H](CC(C)C)C(=O)N[C@@H](Cc1ccccc1)C(=O)N[C@@H](CS)C(=O)N[C@@H](CC(C)C)C(=O)N[C@@H](CC(C)C)C(=O)N[C@H](C(=O)O)C(C)C [Peptide 357] (H-AALLFCLLV-OH; N-terminus and C-terminus assumed)
HLA-A*0201 [1]
  % Binding: 56%
HLA-A*0201 [2]; [8]
  EC50: 100 nM
HLA-A*0201 [3]
  iScore: 0.619
[4]
  CEM.T2 % Binding: 15%
[7]
  CEM.T2 % Residual Binding: 18%

## CC(C)C[C@H](NC(=O)[C@H](C)N)C(=O)N[C@@H](CC(C)C)C(=O)N[C@@H](Cc1ccccc1)C(=O)N[C@@H](CS)C(=O)N[C@@H](CC(C)C)C(=O)N[C@@H](CC(C)C)C(=O)N[C@H](C(=O)N[C@H](C(=O)O)C(C)C)C(C)C [Peptide 358] (H-ALLFCLLVV-OH; N-terminus and C-terminus assumed)
HLA-A*0201 [1]
  % Binding: 53%
HLA-A*0201 [2]; [8]
  EC50: 200 nM
HLA-A*0201 [3]
  iScore: 0.71
[4]
  CEM.T2 % Binding: 26%
[7]
  CEM.T2 % Residual Binding: 26%

## CC(C)C[C@H](NC(=O)[C@H](CS)NC(=O)[C@H](Cc1ccccc1)NC(=O)[C@H](CC(C)C)NC(=O)[C@@H](N)CC(C)C)C(=O)N[C@@H](CC(C)C)C(=O)N[C@H](C(=O)N[C@H](C(=O)N[C@H](C(=O)O)C(C)C)C(C)C)C(C)C [Peptide 359] (H-LLFCLLVVV-OH; N-terminus and C-terminus assumed)
HLA-A*0201 [1]
  % Binding: 67%
HLA-A*0201 [2]; [8]
  EC50: 500 nM
HLA-A*0201 [3]
  iScore: 0.674
[4]
  CEM.T2 % Binding: 7%
[7]
  CEM.T2 % Residual Binding: 23%

## CC(C)C[C@H](NC(=O)[C@@H](NC(=O)[C@H](CO)NC(=O)[C@H](Cc1ccc(O)cc1)NC(=O)[C@H](CO)NC(=O)[C@@H](N)CCCNC(=N)N)[C@@H](C)O)C(=O)N[C@H](C(=O)N[C@H](C(=O)N[C@H](C(=O)O)C(C)C)[C@@H](C)O)[C@@H](C)O [Peptide 443] (H-RSYSTLTTV-OH; N-terminus and C-terminus assumed)
HLA-A*0201 [1]
  % Binding: 68%
HLA-A*0201 [2]; [8]
  EC50: 300 nM
HLA-A*0201 [3]
  iScore: 0.521
[4]
  CEM.T2 % Binding: 37%
[7]
  CEM.T2 % Residual Binding: 0%
